Data: patent US9896412B2, “Reagents and method for conjugating biological molecules” (POLYTHERICS LIMITED, priority 2008, dated 2018)

Method: A pH 7.4 D2O solution was made by first freeze-drying a 50 mM sodium phosphate aqueous solution containing 150 mM NaCl and 20 mM EDTA at pH 7.4 and reconstituting to the same volume with deuterium oxide. Acetone was added as a standard to the buffer at 1.0 μl per 3 ml. Samples of the PEG reagents were dissolved at 1 μmol in 0.75 ml of the buffer and analysed after 4 h and after 25.5 h by 400 MHz NMR spectroscopy. The stability of the PEG maleimide samples was determined by comparing the integral at 6.86 ppm after normalising using the integral for the acetone standard at 2.17 ppm.

% Degradation over 21.5 h at pH 7.4: 19%
Substance: α-methoxy-ω-ethyl-maleinimide polyethylene glycol [PEG maleimide sample 2]
